Assay results as given in PubChem BioAssay AID192 (DTP/NCI, 2004).
Several values for one entry are separate records, joined by “and”; a condition that tells them apart may be missing. Identical values can stand only once. Toxic doses and inconclusive results are not listed. Numbered stars: 1 amine (or outer) side, 2 acyl side, 3 side chain; on linkers, the order of the positions; unused ones are H or OH. Bridge positions count the residues as written; N and C are the ends. Square brackets hold non-standard residues; d marks the D form. Peptide text beside a SMILES is read from it. I, II: the chains in the order shown. Actinocin(9to1) = Cc1c2oc3c(C)ccc(C(=O)[*:1])c3nc-2c(C(=O)[*:2])c(N)c1=O; X2 = O=C(C1CC(Cl)CN1[*:1])[*:2]; NMeV = CN[CH](C(=O)O)C(C)C; Sar = CNCC(=O)O

Test system: BDF1 mice, B16 melanoma ip, median survival T/C
Assay: NCI In Vivo Anticancer Drug Screen. Data for tumor model B16 Melanoma (intraperitoneal) in B6D2F1 (BDF1) mice
Conditions: endpoint: median survival time, higher = longer survival
Procedure: The antitumor activity of compounds was measured in mice bearing transplantable tumors. Survival or tumor size were measured and the results are expressed as the measurement made in the treated group (T) divided by the measurement made in the vehicle treated control group (C). The tumor model used in this assay is B16 Melanoma (intraperitoneal) in B6D2F1 (BDF1) mice

[1] = dose: 100.0 mg/kg/injection, schedule: Q01DX009 (ip), vehicle: Klucel (hydroxypropylcellulose) (HPC)
[2] = dose: 200.0 mg/kg/injection, schedule: Q01DX009 (ip), vehicle: Klucel (hydroxypropylcellulose) (HPC)
[3] = dose: 400.0 mg/kg/injection, schedule: Q01DX009 (ip), vehicle: Klucel (hydroxypropylcellulose) (HPC)
[4] = dose: 12.5 mg/kg/injection, schedule: Q01DX009 (ip), vehicle: saline with Tween-80
[5] = dose: 25.0 mg/kg/injection, schedule: Q01DX009 (ip), vehicle: saline with Tween-80
[6] = dose: 25.0 mg/kg/injection, schedule: Q04DX003 (ip), vehicle: saline with Tween-80
[7] = dose: 50.0 mg/kg/injection, schedule: Q04DX003 (ip), vehicle: saline with Tween-80
[8] = dose: 100.0 mg/kg/injection, schedule: Q01DX009 (ip), vehicle: saline with Tween-80
[9] = dose: 200.0 mg/kg/injection, schedule: Q01DX009 (ip), vehicle: saline with Tween-80
[10] = dose: 400.0 mg/kg/injection, schedule: Q01DX009 (ip), vehicle: saline with Tween-80
[11] = dose: 3.12 mg/kg/injection, schedule: Q01DX009 (ip), vehicle: Klucel (hydroxypropylcellulose) (HPC)
[12] = dose: 12.5 mg/kg/injection, schedule: Q01DX009 (ip), vehicle: Klucel (hydroxypropylcellulose) (HPC)
[13] = dose: 50.0 mg/kg/injection, schedule: Q01DX009 (ip), vehicle: Klucel (hydroxypropylcellulose) (HPC)
[14] = dose: 25.0 mg/kg/injection, schedule: Q01DX009 (ip), vehicle: saline
[15] = dose: 50.0 mg/kg/injection, schedule: Q01DX009 (ip), vehicle: saline with Tween-80

SMILES: COc1cccc(N=Cc2ccc(C=Nc3cccc(OC)c3)cc2)c1
- T/C [1]: 107 % of control
- T/C [2]: 96 % of control
- T/C [3]: 96 % of control

SMILES: CCCC(C)C/C(C)=C/C(C)(C)C(CC(=O)N1CCOCC1)C(=O)O (configuration not stated)
- T/C [4]: 100 % of control
- T/C [5]: 92 % of control
- T/C [6]: 92 % of control
- T/C [7]: 92 % of control

SMILES: O=C(OCOC(=O)c1ccccc1)c1ccccc1
- T/C [1]: 120 % of control
- T/C [2]: 106 % of control
- T/C [3]: 114 % of control

SMILES: NC(=O)CN1C(=O)c2ccccc2C1=O
- T/C [8]: 97 % of control
- T/C [9]: 104 % of control
- T/C [10]: 97 % of control

SMILES: O=[N+]([O-])c1ccc(/C=N\Nc2ccc([N+](=O)[O-])cn2)cc1
- T/C (dose: 0.78 mg/kg/injection, schedule: Q01DX009 (ip), vehicle: Klucel (hydroxypropylcellulose) (HPC)): 106 % of control
- T/C (dose: 1.56 mg/kg/injection, schedule: Q01DX009 (ip), vehicle: Klucel (hydroxypropylcellulose) (HPC)): 97 % of control
- T/C [11]: 86 % of control
- T/C (dose: 6.25 mg/kg/injection, schedule: Q01DX009 (ip), vehicle: Klucel (hydroxypropylcellulose) (HPC)): 97 % of control
- T/C [12]: 86 % of control

SMILES: Cc1ccc(S(=O)(=O)N/N=C(\C(=O)O)c2ccccc2)cc1
- T/C [12]: 95 % of control
- T/C (dose: 25.0 mg/kg/injection, schedule: Q01DX009 (ip), vehicle: Klucel (hydroxypropylcellulose) (HPC)): 87 % of control and 88 % of control
- T/C [13]: 91 % of control
- T/C [1]: 89 % of control

SMILES: CCCCCCCCCC(=O)N(C)OC
- T/C (dose: 12.5 mg/kg/injection, schedule: Q04DX003 (ip), vehicle: saline with Tween-80): 100 % of control
- T/C [6]: 104 % of control
- T/C [7]: 100 % of control

SMILES: O=C1NNC(=O)NN1
- T/C [1]: 118 % of control
- T/C [2]: 106 % of control

SMILES: Nc1nc(=S)c2ncn(C3OC(COC(=O)c4ccccc4)C(OC(=O)c4ccccc4)C3OC(=O)c3ccccc3)c2[nH]1 (configuration not stated)
- T/C [5]: 115 % of control

SMILES: O=[N+]([O-])C(CO)(CO)CO
- T/C (dose: 100.0 mg/kg/injection, schedule: Q04DX003 (ip), vehicle: saline): 110 % of control
- T/C (dose: 200.0 mg/kg/injection, schedule: Q04DX003 (ip), vehicle: saline): 110 % of control
- T/C (dose: 400.0 mg/kg/injection, schedule: Q04DX003 (ip), vehicle: saline): 96 % of control

SMILES: OC(Cc1nc2ccccc2s1)(C(F)(F)F)C(F)(F)F
- T/C [8]: 111 % of control
- T/C (dose: 100.0 mg/kg/injection, schedule: Q04DX003 (ip), vehicle: saline with Tween-80): 89 % of control
- T/C [10]: 108 % of control
- T/C (dose: 400.0 mg/kg/injection, schedule: Q04DX003 (ip), vehicle: saline with Tween-80): 102 % of control

SMILES: CN(CCN(C)Cc1ccccc1)Cc1ccccc1
- T/C [14]: 100 % of control
- T/C (dose: 50.0 mg/kg/injection, schedule: Q01DX009 (ip), vehicle: saline): 92 % of control

SMILES: Cc1c2oc3c(C)ccc(C(=O)NC4C(=O)NC(C(C)C)C(=O)N5CC(Cl)CC5C(=O)N(C)CC(=O)N(C)C(C(C)C)C(=O)OC4C)c3nc-2c(C(=O)NC2C(=O)NC(C(C)C)C(=O)N3CC(Cl)CC3C(=O)N(C)CC(=O)N(C)C(C(C)C)C(=O)OC2C)c(N)c1=O (configuration not stated) (I: TV[X2][Sar][NMeV] / II: TV[X2][Sar][NMeV]; ester I:1-I:C, II:1-II:C; linker I:N-II:N via Actinocin(9to1); configuration not given here)
- T/C (dose: 1080.0 micrograms/kg/injection, schedule: Q04DX003 (ip), vehicle: saline + alcohol): 159 % of control
- T/C (dose: 1800.0 micrograms/kg/injection, schedule: Q04DX003 (ip), vehicle: saline + alcohol): 160 % of control

SMILES: Cl[C](Cl)(Cl)[Hg][c]1ccccc1
- T/C (dose: 0.19 mg/kg/injection, schedule: Q01DX009 (ip), vehicle: saline): 91 % of control
- T/C (dose: 0.38 mg/kg/injection, schedule: Q01DX009 (ip), vehicle: saline): 92 % of control
- T/C (dose: 1.5 mg/kg/injection, schedule: Q01DX009 (ip), vehicle: saline): 89 % of control

SMILES: CCCCOC(=O)c1ccc(NC(=O)Nc2ccccc2Cl)cc1
- T/C [4]: 102 % of control
- T/C [5]: 102 % of control
- T/C [15]: 88 % of control and 100 % of control

SMILES: COc1ccccc1C(=O)c1ccccc1Cc1cccc2ccccc12
- T/C [15]: 98 % of control
- T/C [8]: 97 % of control
- T/C [9]: 92 % of control
- T/C [10]: 93 % of control

SMILES: O=C1CN=C(c2ccccc2)c2cc([N+](=O)[O-])ccc2N1
- T/C (dose: 0.02 mg/kg/injection, schedule: Q01DX009 (ip), vehicle: Klucel (hydroxypropylcellulose) (HPC)): 100 % of control
- T/C (dose: 0.04 mg/kg/injection, schedule: Q01DX009 (ip), vehicle: Klucel (hydroxypropylcellulose) (HPC)): 103 % of control
- T/C (dose: 0.09 mg/kg/injection, schedule: Q01DX009 (ip), vehicle: Klucel (hydroxypropylcellulose) (HPC)): 105 % of control
- T/C (dose: 0.19 mg/kg/injection, schedule: Q01DX009 (ip), vehicle: Klucel (hydroxypropylcellulose) (HPC)): 101 % of control
- T/C (dose: 0.39 mg/kg/injection, schedule: Q01DX009 (ip), vehicle: Klucel (hydroxypropylcellulose) (HPC)): 98 % of control
- T/C [11]: 86 % of control
- T/C [12]: 90 % of control
- T/C [13]: 99 % of control
- T/C [1]: 86 % of control
- T/C [3]: 86 % of control

SMILES: CC(=O)CC(C)=NCC(C)N=C(C)CC(C)=O.c1cc[c]([Sn][c]2ccccc2)cc1 (configuration not stated)
- T/C (dose: 5.0 mg/kg/injection, schedule: Q04DX003 (ip), vehicle: saline with Tween-80): 119 % of control

SMILES: O=c1oc(/C=C/c2ccccc2)nc2cc(Cl)ccc12
- T/C [1]: 109 % of control

SMILES: CN(N=O)C(=O)Nc1c[nH]c(=O)[nH]c1=O
- T/C (dose: 0.13 mg/kg/injection, schedule: Q01DX009 (ip), vehicle: saline with Tween-80): 113 % of control
- T/C (dose: 0.5 mg/kg/injection, schedule: Q01DX009 (ip), vehicle: saline with Tween-80): 105 % of control
- T/C (dose: 1.0 mg/kg/injection, schedule: Q01DX009 (ip), vehicle: saline with Tween-80): 105 % of control
- T/C (dose: 2.0 mg/kg/injection, schedule: Q01DX009 (ip), vehicle: saline with Tween-80): 115 % of control
- T/C (dose: 8.0 mg/kg/injection, schedule: Q01DX009 (ip), vehicle: saline with Tween-80): 170 % of control
- T/C (dose: 16.0 mg/kg/injection, schedule: Q01DX009 (ip), vehicle: saline with Tween-80): 182 % of control
- T/C (dose: 16.5 mg/kg/injection, schedule: Q01DX009 (ip), vehicle: saline with Tween-80): 193 % of control
- T/C [5]: 200 % of control
- T/C [14]: 176 % of control
- T/C (dose: 37.5 mg/kg/injection, schedule: Q01DX009 (ip), vehicle: saline with Tween-80): 200 % of control

SMILES: CCN(CC)CCOCCO
- T/C (dose: 25.0 mg/kg/injection, schedule: Q01DX009 (ip), vehicle: suspension in saline): 107 % of control
- T/C (dose: 50.0 mg/kg/injection, schedule: Q01DX009 (ip), vehicle: suspension in saline): 95 % of control
- T/C (dose: 100.0 mg/kg/injection, schedule: Q01DX009 (ip), vehicle: suspension in saline): 105 % of control
- T/C (dose: 200.0 mg/kg/injection, schedule: Q01DX009 (ip), vehicle: suspension in saline): 96 % of control

SMILES: C[n+]1c(/C=C\C=C\N2CCCCC2)sc2ccccc21
- T/C (dose: 0.06 mg/kg/injection, schedule: Q01DX009 (ip), vehicle: Klucel (hydroxypropylcellulose) (HPC)): 101 % of control
- T/C (dose: 0.12 mg/kg/injection, schedule: Q01DX009 (ip), vehicle: Klucel (hydroxypropylcellulose) (HPC)): 105 % of control
- T/C (dose: 0.25 mg/kg/injection, schedule: Q01DX009 (ip), vehicle: Klucel (hydroxypropylcellulose) (HPC)): 101 % of control
- T/C (dose: 0.5 mg/kg/injection, schedule: Q01DX009 (ip), vehicle: Klucel (hydroxypropylcellulose) (HPC)): 95 % of control
- T/C (dose: 0.63 mg/kg/injection, schedule: Q01DX009 (ip), vehicle: Klucel (hydroxypropylcellulose) (HPC)): 103 % of control
- T/C (dose: 1.0 mg/kg/injection, schedule: Q01DX009 (ip), vehicle: Klucel (hydroxypropylcellulose) (HPC)): 101 % of control
- T/C (dose: 1.25 mg/kg/injection, schedule: Q01DX009 (ip), vehicle: Klucel (hydroxypropylcellulose) (HPC)): 101 % of control
- T/C (dose: 2.0 mg/kg/injection, schedule: Q01DX009 (ip), vehicle: Klucel (hydroxypropylcellulose) (HPC)): 105 % of control
- T/C (dose: 2.5 mg/kg/injection, schedule: Q01DX009 (ip), vehicle: Klucel (hydroxypropylcellulose) (HPC)): 109 % of control

SMILES: O=[N+]([O-])c1ccc2ccccc2c1-c1c([N+](=O)[O-])ccc2ccccc12
- T/C [15]: 97 % of control
- T/C [8]: 101 % of control
- T/C [9]: 97 % of control
